From ChEMBL document CHEMBL4118148, “Design, synthesis and cardiovascular evaluation of some aminoisopropanoloxy derivatives of xanthone” (Bioorg Med Chem, 2018) come the findings set out here.

Data set [1] relates to Rattus norvegicus. The experiment in a line: Hypotensive activity in normotensive Wistar rat assessed as systolic blood pressure at 0.5 mg/kg, iv measured after 30 mins (reference value: 147.7 +/- 5.9 mmHg). In kind it is functional.
The test system of data set [2] is Rattus norvegicus. In words: Cardiotoxicity in Wistar rat assessed as effect on QT interval time at 1 mg/kg, iv measured after 15 mins (reference value: 59.2 +/- 0.5 ms). The format is toxicity, organism-based. The settings on record: in vivo, 0.25 h.
The test system of data set [3] is Rattus norvegicus. The experiment in a line: Cardiotoxicity in Wistar rat assessed as effect on QRS interval time at 1 mg/kg, iv measured after 5 mins (reference value: 19.4 +/- 0.9 ms). The format is toxicity, organism-based. The note with it: in vivo.
The test system of data set [4] is Rattus norvegicus. In words: Hypotensive activity in normotensive Wistar rat assessed as reduction in diastolic blood pressure at 1 mg/kg, iv measured over 10 mins relative to control. More on the design: scale not given: the % may be the effect or the level left. The format is functional.

Molecules are shown by their SMILES.

As for `Cl.O=c1c2ccccc2oc2c(OCC(O)CN3CCN(c4ccccn4)CC3)cccc12` (racemic), the Activity in the data set on Rattus norvegicus [1] came out at 137.7 mmHg.

For `CC(C)(C)NCC(O)COc1cccc2c(=O)c3ccccc3oc12.Cl` (racemic), the Time with Rattus norvegicus [2] worked out at 59.6 ms; in the data set on Rattus norvegicus [3], 19 ms.

Take `COc1ccccc1CCNCC(O)COc1cccc2c(=O)c3ccccc3oc12.Cl` (racemic): in the data set on Rattus norvegicus [4], the Activity stood at 7%.
